25 molecules from ChEMBL document CHEMBL1133765, “QSAR model for drug human oral bioavailability” (J Med Chem, 2000) can be followed below.

For data set [1] the following is noted: octanol/water.
A short description of another data set: clinical. To be noted: human, in vivo, po.
Data set [2] in a line: physchem. To be noted: octanol/water, pH 6.5.
The nature of data set [3]: physchem.

Molecules are shown by their SMILES. Some results are limits rather than exact numbers.

On to `NC(=O)CCCCc1ccccc1`, for which the “delta logD” value in data set [1] was 0. In addition, the bioavailability in “clinical” (F) is no less than 80%. In the data set “physchem [2]”, this molecule registered a logD of 0.13.

Consider `O=[N+]([O-])C1O[C@H]2[C@H](OC[C@@H]2O)[C@@H]1O` (some centres undefined), for which the “delta logD” value in data set [1] turned out to be 0. In addition, the bioavailability in the data set “clinical” (F) was no less than 80%. For the same molecule, the logD in the data set “physchem [2]” was -0.4.

As to `O=[N+]([O-])C1O[C@H]2[C@H](OC[C@H]2O)[C@H]1O` (some centres undefined), the “delta logD” value in data set [1] is recorded as 0. Besides, the bioavailability in “clinical” (F) is no less than 80%. The molecule further gave a logD in “physchem [2]” of -0.15.

Take `CCO` [ALCOHOL]: in “clinical” (F), the bioavailability was greater than 80%.

In the case of `Oc1ncnc2[nH]ncc12` [ALLOPURINOL], the “delta logD” value in data set [1] worked out at 0. Further, the bioavailability in the data set “clinical” is no less than 80%. The molecule further returned a logD in “physchem [2]” of -0.55.

As for `C=CCc1ccccc1OCC(O)CNC(C)C` (centres undefined) [ALPRENOLOL], the “delta logD” value in data set [1] is reported as -0.89. Also, in the data set “clinical” (F), the bioavailability is no more than 20%. The logD in “physchem [2]” was 0.4.

As for `CCC1(CCC(C)C)C(=O)NC(=O)NC1=O` [AMOBARBITAL], in data set [1], the “delta logD” value came to 0.13. Further, in “clinical”, the bioavailability was no less than 80%. This molecule had a logD in the data set “physchem [2]” of 2.05.

As to `CCCCNc1cc(C(=O)O)cc(S(N)(=O)=O)c1Oc1ccccc1` [BUMETANIDE], in data set [1], the “delta logD” value turned out to be 0.9. In the data set “clinical” (F), the bioavailability was no less than 80%. This molecule yielded a logD in the data set “physchem [2]” of -1.84.

Regarding `NC(=O)N1c2ccccc2C=Cc2ccccc21` [CARBAMAZEPINE], in data set [1], the “delta logD” value came to 0. Further, in the data set “clinical” (F), the bioavailability was no less than 80%.

`CN(C)CCC(c1ccc(Cl)cc1)c1ccccn1` (centres undefined) [CHLORPHENIRAMINE]: in data set [1], the “delta logD” value is -0.89. Besides, in the data set “physchem [2]”, the logD worked out at 0.69.

Take `CN1C(=O)CC(=O)N(c2ccccc2)c2cc(Cl)ccc21` [CLOBAZAM]: the “delta logD” value in data set [1] was determined as 0. This molecule showed a bioavailability in “clinical” of no less than 80%. The same molecule gave a logD in the data set “physchem [2]” of 0.95.

With `CN(C)CCCN1c2ccccc2CCc2ccc(Cl)cc21` [CLOMIPRAMINE], the logD in the data set “physchem [2]” was found to be 2.49.

As for `O=c1ccc2ccccc2o1` [COUMARIN], in the data set “clinical” (F), the bioavailability is less than 20%.

`CCc1cccc2c3c([nH]c12)C(CC)(CC(=O)O)OCC3` (centres undefined) [ETODOLAC] came in with a bioavailability in “clinical” (F) of no less than 80%. The pKa in “physchem [3]” came out at 4.7.

Consider `O=C(NCC1CCCCN1)c1cc(OCC(F)(F)F)ccc1OCC(F)(F)F` (centres undefined) [FLECAINIDE], for which, in data set [1], the “delta logD” value was -0.9. The bioavailability in “clinical” (F) was no less than 80%. In the data set “physchem [2]”, this molecule came in with a logD of 0.24.

Molecule `CNC1(c2ccccc2Cl)CCCCC1=O` (centres undefined) [KETAMINE] showed a bioavailability in the data set “clinical” of no more than 20%. In “physchem [2]”, the logD was 1.14.

As to `Cc1c(OCC(F)(F)F)ccnc1C[S+]([O-])c1nc2ccccc2[nH]1` (centres undefined) [LANSOPRAZOLE], in “clinical”, the bioavailability was no less than 80%. The molecule further yielded a logD in “physchem [2]” of 1.73.

In the case of `O=C1Nc2ccc(Cl)cc2C(c2ccccc2Cl)=NC1O` (centres undefined) [LORAZEPAM], the “delta logD” value in data set [1] turned out to be 0. In “clinical”, this molecule yielded a bioavailability of no less than 80%.

Consider `CC[C@H](C)C(=O)O[C@H]1C[C@@H](C)C=C2C=C[C@H](C)[C@H](CC[C@@H]3C[C@@H](O)CC(=O)O3)[C@H]21` [LOVASTATIN], for which, in data set [1], the “delta logD” value was 0. Also, the logD in the data set “physchem [2]” came out at 4.26.

Turning to `Cc1ncc([N+](=O)[O-])n1CCO` [METRONIDAZOLE], the “delta logD” value in data set [1] was 0. This molecule displayed a bioavailability in “clinical” (F) of no less than 80%.

Turning to `Cc1ccnc2c1NC(=O)c1cccnc1N2C1CC1` [NEVIRAPINE], in “clinical”, the bioavailability is no less than 80%. Moreover, the logD in the data set “physchem [2]” turned out to be 1.92.

In “clinical”, `COC(=O)C1=C(C)NC(C)=C(C(=O)OC)C1c1ccccc1[N+](=O)[O-]` [NIFEDIPINE] came in with a bioavailability of 79%.

As to `CCCCNC(=O)NS(=O)(=O)c1ccc(C)cc1` [TOLBUTAMIDE], the bioavailability in the data set “clinical” (F) was no less than 80%. This molecule also yielded a pKa in “physchem [3]” of 5.3.

Turning to `COc1cc(Cc2cnc(N)nc2N)cc(OC)c1OC` [TRIMETHOPRIM], the bioavailability in “clinical” (F) was greater than 80%.

In turn, `COc1ccc(C(CN(C)C)C2(O)CCCCC2)cc1` (centres undefined) [VENLAFAXINE] yielded a bioavailability in “clinical” of no more than 20%. Besides, in “physchem [2]”, the logD was -2.29.
